Read-outs that look alike come from different tables or passages of the source.
Experiments:
[1] = system: Isolated Rat Bladder Strips; test: Inhibition of Contractions in Isolated Rat Bladder Strips (15 mM KCl-enhanced contractile activity); assay type: tissue-based, Sprague-Dawley rats; settings: for IC50: 0.5 h, 15 mM KCl, 37 deg. C., pH 7.4, 30 minute challenge, read-out: IC50 Bladder (B): concentration required to elicit 50% inhibition of pre-drug contractile activity
Method: Sprague-Dawley rats (150-200 g) are rendered unconscious by CO2 asphyxiation and then euthanized by cervical dislocation. […] The bladder is opened and then cut into strips 1-2 mm in width and 7-10 mm in length. The strips are subsequently suspended in a 10 mL tissue bath under an initial resting tension of 1.5 g. The strips are held in place by two surgical clips one of which is attached to a fixed hook while the other is attached to an isometric force transducer. […] The carbachol is then washed out and the tissue allowed to relax to its resting level of activity. Following a further 30 min period of recovery an additional 15 mM KCl are introduced into the tissue bath. […] Following stabilization of this enhanced level of contractile activity, incremental increases in the concentration of test compound or vehicle are introduced into the tissue bath. Contractile activity is measured for each compound or vehicle concentration during the last minute of a 30 minute challenge.

Aorta = test: Inhibition of contractions in aorta (indication of selectivity, Table I); assay type: cell-based; settings: for IC50 (A)/IC50 (B): selectivity ratio aorta / bladder

Row | IC50 ([1]; isolated rat bladder strips) [µM] | Compound | IC50 (A)/IC50 (B) (Aorta) | other results
1 | 11 ± 4.04 | O=C(Nc1ccccc1C(=O)O)C1=C(c2ccc(C(F)(F)F)cc2)CCC1 [Example 1, 2-{[2-(4-Trifluoromethyl-phenyl)-cyclopent-1-enecarbonyl]-amino}-benzoic acid] | – | –
2 | – | O=C([O-])c1ccccc1NC(=O)c1ncoc1-c1ccc(C(F)(F)F)cc1.[Li+] [Example 3, 2-{[5-(4-Trifluoromethyl-phenyl)-oxazole-4-carbonyl]-amino}-benzoic acid lithium salt] | 0.42 | IC50 (Aorta): 7.35 ± 0.25 µM; IC50 ([1]; Rattus norvegicus, pH 7.4, isolated rat bladder strips): 17.5 ± 12.4 µM
3 | 11.9 ± 3.95 | Cc1noc(-c2ccc(C(F)(F)F)cc2)c1C(=O)Nc1ccccc1C(=O)O [Example 4, 2-{[3-Methyl-5-(4-trifluoromethyl-phenyl)-isoxazole-4-carbonyl]-amino}-benzoic acid] | – | –
4 | – | COc1ccc(/C=C/C(=O)Nc2ccccc2C(=O)O)cc1OC [Tranilast, reference compound] | 1.08 | potency and bladder selectivity as smooth muscle relaxant (in words) ([1]; in vitro, Table 1): not to be a potent or bladder selective smooth muscle relaxant

Row | Compound | IC50 ([1]; isolated rat bladder strips) [µM] | IC50 (A)/IC50 (B) (Aorta) | other results
5 | O=C(O)c1ccccc1NC(=O)c1ncoc1-c1ccc(C(F)(F)F)cc1 [Example 2, 2-{[5-(4-Trifluoromethyl-phenyl)-oxazole-4-carbonyl]-amino}-benzoic acid] | 17.9 ± 5.8 | – | –

Source: US6096770A, “Anthranilic acid analogs” (American Home Products Corporation, priority 1998, dated 2000)
